Test [1] relates to CHSA8926 (Chondrosarcoma). Description: Bliss excess, mean over the matrix (fraction); higher = more synergy. The gist of the method: (§1)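 After 24 hours at 37°C and 5% CO2 in 1536-well plates, cells in DMEM/F12 or RPMI plus 10% FBS received two-drug dose matrices for 72 hours. Viability came from CellTiter-Glo 2.0 luminescence and was scaled as inhibition, anchored at 0 by vehicle wells and at 1 by blank wells. Combination Emax is taken as the second-highest inhibition in the matrix, and Bliss excess as the observed combination effect less EA + EB − EA·EB, with EA and EB the single-agent effects.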

The test system of test [2] is H9 (T-Cell Non-Hodgkin's Lymphoma). The description is as above. The essentials:
as §1

Test [3] relates to HCC1187 (Breast Carcinoma). Described as above. The gist of the method: as §1
In test [4] the test system is IM-95 (Gastric Carcinoma). The test is described as above. The gist of the method:
as §1

Test [5] has as its system JHH-4 (Hepatocellular Carcinoma). Described as above. The essentials: as §1
In test [6] the test system is KU812 (Chronic Myelogenous Leukemia). The description is as above. The essentials: as §1
The test system of test [7] is KY821 (Acute Myeloid Leukemia). The test is described as above. The gist of the method: as §1
Test [8] has as its system MOG-G-CCM (Low Grade Glioma). Described as above. The essentials:
as §1

The next test concerns NCI-H2731 (Mesothelioma). Described as above. The essentials: as §1
Test [9] has as its system NCI-H3122 (Lung Adenocarcinoma). The description is as above. The essentials: as §1
The test system of test [10] is NCI-H520 (Squamous Cell Lung Carcinoma). The test is described as above. The essentials:
as §1

For test [11], the system named is NCI-H661 (Non-Small Cell Lung Carcinoma). The test is described as above. The gist of the method:
as §1

Test [12] deals with NCI-H929 (Plasma Cell Myeloma). Described as above. The gist of the method:
as §1

Test [13] relates to PC-3 (Prostate Carcinoma). Described as above. The essentials:
as §1

For a further test, the system named is RD (Rhabdomyosarcoma). The test is described as above. The essentials:
as §1

A further test has as its system SJSA-1 (Osteosarcoma). The description is as above. The gist of the method: as §1
Test [14] relates to SK-GT-4 (Esophageal Adenocarcinoma). The test is described as above. The essentials:
as §1

For test [15], the system named is SU-DHL-5 (B-Cell Non-Hodgkin's Lymphoma). The test is described as above. The essentials: as §1
The test system of test [16] is T-T (Esophageal Squamous Cell Carcinoma). The test is described as above. The gist of the method: as §1
In test [17] the test system is PC-3 (Prostate Carcinoma). Description: combination Emax (second highest fraction inhibited in the dose matrix, 72 h); higher = more inhibition; extreme values may be limits of the assay. The essentials:
as §1

Seven compounds from the supplement of paper PMC11061612 can be followed below.
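Throughout, for Bliss excess, mean over the matrix: after 72 h of two-drug dosing.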

Take `COc1cccc(OCCCN)c1-c1cc(Nc2cnc(C#N)cn2)n[nH]1` [Prexasertib] + CCc1c2c(nc3ccc(O)cc13)-c1cc3c(c(=O)n1C2)COC(=O)[C@]3(O)CC [SN-38] (first compound max 1 µM, 7x7, partner max 0.3 µM): the Bliss excess in test [1] is -0.0024; in [2] it was -0.0004; in test [3], 0.164; in test [4], 0.0026; in test [5] it was -0.0289; in test [6], -0.124. For the same compound, the Bliss excess in test [7] is -0.0235; in [8], 0.0411; in the test on NCI-H2731 (Mesothelioma) it was 0.0108; in test [9], -0.002; in test [10], -0.0483; in test [11], 0.0419. In addition, the Bliss excess in test [12] is -0.0713; in test [13], -0.0185; in the test on RD (Rhabdomyosarcoma), 0.065; in the test with SJSA-1 (Osteosarcoma), -0.129; in test [14], -0.0304; in test [15], 0.0023. In [16], the Bliss excess came to 0.12. Besides, the “combination Emax” value in test [17] is 0.703.

On to `COc1nnc2ccc(N3CCC(c4ccc(OCCN5CCN(C)C(=O)[C@H]5C)cc4)CC3)nn12` [AZD5153] + Cc1c2c(nn1C)CSCc1cc(n(C)n1)CSc1cc(c3ccccc3c1)OCCCc1c(C(=O)O)n(C)c3c-2c(Cl)ccc13 [AZD5991] (first compound max 1 µM, 7x7, partner max 1 µM), for which the Bliss excess is -0.0166 in [1]; -0.0056 in [2]; 0.0079 in test [3]; -0.0477 in [4]; 0.0096 in test [5]; -0.0007 in test [6]. In addition, the Bliss excess in test [7] is 0.0104; in [8], 0.0248; with NCI-H2731 (Mesothelioma) it was -0.0327; in [9] it was -0.0279; in test [10] it was -0.0174; in [11] it was 0.031. Also, the Bliss excess in [12] is -0.0142; in test [13], -0.054; in the test with RD (Rhabdomyosarcoma) it was 0.0267; in the test on SJSA-1 (Osteosarcoma) it was -0.0673; in test [14], -0.0304; in test [15], -0.0264. Moreover, the Bliss excess in [16] is -0.0157. Further, in test [17], the “combination Emax” value is 0.376.

Take `Cc1nc(Nc2ncc(C(=O)Nc3c(C)cccc3Cl)s2)cc(N2CCN(CCO)CC2)n1` [Dasatinib] + CC(=O)Nc1cccc(-n2c(=O)n(C3CC3)c(=O)c3c(Nc4ccc(I)cc4F)n(C)c(=O)c(C)c32)c1 [Trametinib] (first compound max 2 µM, 7x7, partner max 1 µM): the Bliss excess in test [1] was -0.194; in [2], -0.193; in test [3], -0.0367; in test [4], -0.0551; in test [5] it was -0.116; in test [6], -0.0046. Also, the Bliss excess in test [7] was -0.144; in test [8] it was -0.0782; with NCI-H2731 (Mesothelioma), 0.0298; in test [9], -0.0651; in [10] it was -0.0488; in test [11], -0.0528. The Bliss excess is -0.075 in test [12]; -0.0759 in test [13]; 0.188 with RD (Rhabdomyosarcoma); 0.0005 with SJSA-1 (Osteosarcoma); -0.0415 in test [14]; 0.0159 in test [15]. In addition, in test [16], the Bliss excess came out at 0.0381. Further, the “combination Emax” value in test [17] was found to be 0.243.

With `COc1nnc2ccc(N3CCC(c4ccc(OCCN5CCN(C)C(=O)[C@H]5C)cc4)CC3)nn12` [AZD5153] + C[C@@H]1COCCN1C2=NC(=NC(=C2)C3(CC3)[S@](=N)(=O)C)C4=C5C=CNC5=NC=C4 [AZD6738] (first compound max 1 µM, 7x7, partner max 10 µM), the Bliss excess in test [1] is 0.0437; in test [2] it was -0.0108; in test [3], 0.0265; in [4], 0.0268; in test [5], 0.134; in [6] it was -0.065. The Bliss excess in [7] is -0.0196; in test [8] it was -0.0378; with NCI-H2731 (Mesothelioma) it was 0.0266; in test [9], -0.0382; in [10], 0.07; in [11], 0.0929. In addition, the Bliss excess is -0.0817 in test [12]; 0.0034 in test [13]; 0 in the test with RD (Rhabdomyosarcoma); -0.0398 in the test with SJSA-1 (Osteosarcoma); -0.0252 in [14]; 0.0107 in test [15]. Moreover, the Bliss excess in test [16] is -0.0179. For the same compound, in test [17], the “combination Emax” value was determined as 0.5.

Consider `CC1(C)CCC(CN2CCN(c3ccc(C(=O)NS(=O)(=O)c4ccc(NCC5CCOCC5)c([N+](=O)[O-])c4)c(Oc4cnc5[nH]ccc5c4)c3)CC2)=C(c2ccc(Cl)cc2)C1` [Venetoclax] + CCN(CCO)CCCOc1ccc2c(Nc3cc(CC(=O)Nc4cccc(F)c4)[nH]n3)ncnc2c1 [AZD2811] (first compound max 1 µM, 7x7, partner max 1 µM), for which the Bliss excess in test [1] is 0.0042; in test [2], -0.0616; in test [3] it was -0.0165; in [4], 0.104; in test [5] it was -0.0152; in [6], -0.0433. Further, the Bliss excess was 0.002 in test [7]; -0.0061 in [8]; -0.021 in the test with NCI-H2731 (Mesothelioma); -0.0229 in test [9]; 0.0319 in [10]; -0.0105 in [11]. For the same compound, the Bliss excess is 0.101 in test [12]; -0.0668 in test [13]; -0.0311 with RD (Rhabdomyosarcoma); -0.0214 in the test with SJSA-1 (Osteosarcoma); -0.0295 in test [14]; -0.125 in [15]. Besides, the Bliss excess in [16] was 0.0158. The “combination Emax” value in test [17] turned out to be 0.245.

`Cc1c2c(nn1C)CSCc1cc(n(C)n1)CSc1cc(c3ccccc3c1)OCCCc1c(C(=O)O)n(C)c3c-2c(Cl)ccc13` [AZD5991] + C[C@@H](Nc1cc(F)cc(F)c1)c1cc(C(=O)N(C)C)cc2c(=O)cc(N3CCOCC3)oc12 [AZD8186] (first compound max 1 µM, 7x7, partner max 3 µM): the Bliss excess was 0.091 in test [1]; -0.0485 in test [2]; -0.0176 in [3]; -0.0348 in test [4]; -0.0164 in test [5]; -0.0554 in test [6]. Besides, the Bliss excess in test [7] is 0.0034; in test [8], -0.0316; in the test with NCI-H2731 (Mesothelioma) it was -0.0626; in test [9], -0.0639; in [10], -0.0474; in [11] it was 0.0181. Also, the Bliss excess is -0.0218 in test [12]; 0.0051 in [13]; 0.0195 in the test with RD (Rhabdomyosarcoma); -0.105 with SJSA-1 (Osteosarcoma); -0.0185 in [14]; 0.0109 in [15]. In test [16], the Bliss excess turned out to be 0.0265. Further, the “combination Emax” value in test [17] came out at 0.449.

For the compound `Cc1cc2ncnn2cc1Nc1ncc2c(n1)n(C1CCOCC1)c(=O)n2C` [AZD7648] + O=C(c1cc(Cc2n[nH]c(=O)c3ccccc23)ccc1F)N1CCN(C(=O)C2CC2)CC1 [Olaparib] (first compound max 10 µM, 7x7, partner max 10 µM), the Bliss excess in test [1] was -0.0511; in [2] it was -0.0049; in test [3], -0.0092; in test [4] it was -0.0303; in test [5], -0.0213; in [6] it was -0.0425. For the same compound, the Bliss excess in test [7] is -0.0003; in test [8], -0.0269; with NCI-H2731 (Mesothelioma), -0.069; in [9], -0.0505; in [10], -0.0742; in [11], -0.0373. For the same compound, the Bliss excess was -0.0192 in [12]; -0.0263 in [13]; -0.0508 in the test with RD (Rhabdomyosarcoma); -0.036 in the test on SJSA-1 (Osteosarcoma); -0.0258 in test [14]; 0.0091 in test [15]. In addition, in [16], the Bliss excess was -0.0642. Further, in [17], the “combination Emax” value was 0.265.
